The record followed here is patent US20080113908A1, “Use of CRF receptor agonists for the treatment or Prophylaxis of diseases, for example Neurodegenerative diseases” (SmithKline Beecham plc, priority 2000, published 2008).

This experiment has as its system GSK-3β. As to the kind of experiment: Western blot of serine-9-phosphorylated GSK-3β (FIG. 5). The experiment is classed as cell-based, rat. Particulars: compound alone, 2 hours; CRF 10 nM, LY 294002 75 μM, FSK 30 μM. An excerpt: It was thought that CRF receptor agonists might interact with the PI 3-kinase signalling pathway and exert their neuroprotective effect by phosphorylating and inhibiting the protein GSK-3β,which is pro-apoptotic (M. Pap and G. M. Cooper, J. Biol. Chem., 273(32), 19929-19932, 1998; and M. Hetman et al. J. Neurosci., 1st Apr. 2000, 20(7), 2567-2574; discussed hereinabove). In order to confirm this, the level of GSK-3β phosphorylated at serine-9 (e.g. see D. A. E. Cross, Nature, 378, 785-789, 1995) in control cultures of cerebellar granule neurones was measured using Western blots, and compared to the level of phospho-GSK-3β in the presence of CRF as a model CRF receptor agonist and/or in the presence of the PI 3-kinase inhibitor LY 294002. In order to determine whether elevation of cAMP was involved in any effect, the level of phospho-GSK-3β in cultures in the presence of the known cAMP-elevating agent forskolin (FSK, obtainable e.g. from Calbiochem.) with or without LY 294002 present was also measured. The forskolin acts as a benchmark for cAMP-related effects.
The method used was as follows. […]
Phosphorylation of GSK-3β was detected using an antibody to serine-9-phosphorylated GSK-3β (anti-phospho-GSK-3β (Ser9)) available as catalogue no. […]

As to “H-SQEPPISLDLTFHLLREVLEMTKADQLAQQAHNNRKLLDIA-NH2 [CRF]”, the “phospho-GSK-3β level compared to control CN” value is given as “increase in basal phospho-GSK-3β”.
